Patent US20210113540A1, “TREATMENT AGENT AND PHARMACEUTICAL COMPOSITION FOR GLIOMA” (NATIONAL UNIVERSITY CORPORATION HOKKAIDO UNIVERSITY, priority 2018, published 2021)
Where two headings read alike, the source gives them in different places.

Tests used:
GICs = assay: Neutralization of GIC-damaging activity by addition of UDP-GlcNAc; assay type: cell-based, human; conditions: UDP-GlcNAc added after the chemical, FIG. 4
Experimental: When UDP-GlcNAc was added after the chemical was added to GIC, reduced SOX2 expression in GICs and the cytotoxic activity of Compound 8 on GICs were neutralized (FIGS. 3 and 4). SOX2 K75A in which lysine 75 involved in the binding of CRM1 and SOX2 was substituted with alanine and SOX2 S248A in which the 0-GlcNAcylation target serine 248 was substituted with alanine were prepared, thereby establishing GICs that constitutively express these SOX2 mutants and wild-type SOX2 (SOX2 wt). After treatment with Compound 8, the localization of SOX2 was examined by immunostaining using an anti-FLAG antibody, and the viability of GICs expressing these mutants was examined by MTT assay (FIG. 5). In the presence of Compound 8, SOX2 K75A was present in the nucleus and partially neutralized the cytotoxic activity of Compound 8. SOX2 S248A was not retained in the nucleus by treatment with Compound 8, and no inhibitory effect on cytotoxic activity was observed. […] The SOX2/DAPI positive rate was as follows: GIC (E6): Control: 0%, SOX2 wt: 36±5%, SOX2 K75A: 63±5%, SOX2 S248A: 18±2%; GIC (E16): Control: 0%, SOX2 wt: 22±4%, SOX2 K75A: 58±6%, SOX2 S248A: 15±3%. Error bar: ±SD. Statistical processing is t-test. *P<0.05, **P<0.01, ***P<0.001. GIC was cultured for 2 days with Compound 8 (10 μmol/L) alone or together with UDP-GlcNAc (1 mmol/L), and immunostaining was performed for SOX2 and NESTIN. […]

[1] = test system: Glioma-initiating cell E6; assay: Cell proliferation test (MTT) on GIC strain E6; assay type: cell-based; conditions: Homo sapiens, 72 h, MTT after 3 days
Experimental: GIC and GICR strain: Cell growth test was performed using E6, E6R, E16, and E16R (Stem Cells. 2016 August; 34(8): 2016-25.).
Cell culture solutions were obtained by mixing a medium prepared by adding various compounds, bFGF (Peprotech, 100-18B) and EGF (Peprotech, 100-15) to DMEM/Ham's F-12 medium (SIGMA, D8062) and a medium prepared by adding FCS (Hyclone, SH30910.03) to DMEM medium (Nacalai tesque, 08458-45) to a concentration of 10% for use.
Each compound adjusted to a predetermined concentration was dispensed into a 96-well plate (Falcon, 353072) at 80 μL/well, and E6 cells and E6R cells were seeded on the 96-well plate at 1000 cells/80 μL/well. After 3 days, 10 μL of an MTT reagent (DOJINDO, 341-01823) was added, the cells were incubated at 37° C. for 3 hours, the culture solution was removed, and 100 μL of DMSO was added. The absorbance at 570 nm was measured using Bio-Rad iMark (Bio-Rad, 168-1130JA). The growth inhibition rate at each test compound concentration was calculated by the following formula using the absorbance as an index of the viable cell count.
The growth inhibition rate at each compound concentration was determined, and the 50% growth inhibition concentration GI50 (μmol/L)] was calculated using XLfit. Growth inhibition rate (%)=(Amount of luminescence from wells supplemented with test compound)/(Amount of luminescence from wells supplemented with DMSO)×100

[2] = test system: GIC strains (E6 cell, E16 cell); assay: Immunostaining of differentiated and undifferentiated markers in GIC strains; assay type: cell-based, human; conditions: Compound 8 10 μM, E6 and E16 cells, FIG. 1

GI50 ([1]; read-out: GI50 (nmol/L) of Glioma-initiating cell E6): < 7 nmol/L
GI50 ([1]; read-out: GI50 class of Glioma-initiating cell E6): < 1000 nmol/L
SMILES: O=C(O)c1cc(C2CC2)cnc1Nc1ccc2c(ccn2-c2ccccc2)c1 [Compound 8, 5-cyclopropyl-2-((1-phenyl-1H-indole-5-yl)amino)nicotinic acid]
cytotoxic activity of Compound 8 on GICs when UDP-GlcNAc was added (GICs): neutralized
expression of differentiation markers (βIII tubulin, GFAP, GC) [2]: increased
positive rate of neural stem cell markers SOX2 and NESTIN [2]: remarkable decrease
